Measurements as given in PubChem BioAssay AID2060618 (Molecular Pharmacology Branch, DTP, NCI, 2025).
pIC50: −log10 of the molar value.

Tested on: 454973-116-R2-J3-PDC spheroids, percent test/control viability
Assay: Anticancer human tumor 454973-116-R2-J3-PDC patient-derived pancreatic carcinoma cell line growth inhibition [CLK]
Settings: spheroids with HUVEC and MSC; for pIC50: curve of first compound; for viability, T/C: stronger effect = lower value
How it was run: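 Multi-cell-type spheroids combined patient-derived tumor cells with HUVEC endothelial cells and human mesenchymal stem cells. Paired agents were dosed in half-log steps down from about clinical Cmax, or from 10 microM where Cmax was unknown.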

[1] = second compound 0.0316 µM, first compound 0.0316 µM
[2] = second compound 0.0316 µM, first compound 0.1 µM
[3] = second compound 0.0316 µM, first compound 0.316 µM
[4] = second compound 0.0316 µM, first compound 1 µM
[5] = second compound 0.0316 µM, first compound 3.16 µM
[6] = second compound 0.0316 µM, first compound 10 µM
[7] = second compound 0.1 µM, first compound 0.0316 µM
[8] = second compound 0.1 µM, first compound 0.1 µM
[9] = second compound 0.1 µM, first compound 0.316 µM
[10] = second compound 0.1 µM, first compound 1 µM
[11] = second compound 0.1 µM, first compound 3.16 µM
[12] = second compound 0.1 µM, first compound 10 µM
[13] = second compound 0.316 µM, first compound 0.0316 µM
[14] = second compound 0.316 µM, first compound 0.1 µM
[15] = second compound 0.316 µM, first compound 0.316 µM
[16] = second compound 0.316 µM, first compound 1 µM
[17] = second compound 0.316 µM, first compound 3.16 µM
[18] = second compound 0.316 µM, first compound 10 µM
[19] = second compound 1 µM, first compound 0.0316 µM
[20] = second compound 1 µM, first compound 0.1 µM
[21] = second compound 1 µM, first compound 0.316 µM
[22] = second compound 1 µM, first compound 1 µM
[23] = second compound 1 µM, first compound 3.16 µM
[24] = second compound 1 µM, first compound 10 µM
[25] = second compound 3.16 µM, first compound 0.0316 µM
[26] = second compound 3.16 µM, first compound 0.1 µM
[27] = second compound 3.16 µM, first compound 0.316 µM
[28] = second compound 3.16 µM, first compound 1 µM
[29] = second compound 3.16 µM, first compound 3.16 µM
[30] = second compound 3.16 µM, first compound 10 µM
[31] = second compound 10 µM, first compound 0.0316 µM
[32] = second compound 10 µM, first compound 0.1 µM
[33] = second compound 10 µM, first compound 0.316 µM
[34] = second compound 10 µM, first compound 1 µM
[35] = second compound 10 µM, first compound 3.16 µM
[36] = second compound 10 µM, first compound 10 µM
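Note: spheroids exposed to compounds for 7 days before readout.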

For `CC1(C)CCC(CN2CCN(c3ccc(C(=O)NS(=O)(=O)c4ccc(NCC5CCOCC5)c([N+](=O)[O-])c4)c(Oc4cnc5[nH]ccc5c4)c3)CC2)=C(c2ccc(Cl)cc2)C1` + CNC(=O)c1ccc(Nc2nc(OC3CCCC3)c3c(-c4ccc5nc(C)oc5c4)c[nH]c3n2)c(OC)c1, the pIC50 (second compound 0.0316 µM) was 5.17, the pIC50 (second compound 0.1 µM) was 5.16 and the pIC50 (second compound 0.316 µM) was > 7.50. The pIC50 (second compound 1 µM) was > 7.50, the pIC50 (second compound 3.16 µM) was > 7.50 and the pIC50 (second compound 10 µM) was > 7.50. The viability, T/C [1] was 95.9%, the viability, T/C [2] was 94.7% and the viability, T/C [3] was 103%. For the same compound, the viability, T/C [4] was 102%, the viability, T/C [5] was 112% and the viability, T/C [6] was 24.5%. The viability, T/C [7] was 96.3%, the viability, T/C [8] was 98.8% and the viability, T/C [9] was 93.9%. For the same compound, the viability, T/C [10] was 94%, the viability, T/C [11] was 102% and the viability, T/C [12] was 28.1%. The viability, T/C [13] was 37.5%, the viability, T/C [14] was 38.5% and the viability, T/C [15] was 37.6%. It also gave a viability, T/C [16] of 40.3%, a viability, T/C [17] of 32.5% and a viability, T/C [18] of 21.1%. For the same compound, the viability, T/C [19] was 27.2%, the viability, T/C [20] was 26.2% and the viability, T/C [21] was 28.3%. The viability, T/C [22] was 28.4%, the viability, T/C [23] was 28.3% and the viability, T/C [24] was 23.4%. The viability, T/C [25] was 29.2%, the viability, T/C [26] was 25.2% and the viability, T/C [27] was 26.9%. The viability, T/C [28] was 23.9%, the viability, T/C [29] was 27.6% and the viability, T/C [30] was 22.3%. For the same compound, the viability, T/C [31] was 26.6%, the viability, T/C [32] was 26.6% and the viability, T/C [33] was 24.4%. The viability, T/C [34] was 21.8%, the viability, T/C [35] was 26.1% and the viability, T/C [36] was 21.6%.

For `CC1COCCN1c1cc(C2(S(C)(=N)=O)CC2)nc(-c2ccnc3[nH]ccc23)n1` (stereo unspecified) + CNC(=O)c1ccc(Nc2nc(OC3CCCC3)c3c(-c4ccc5nc(C)oc5c4)c[nH]c3n2)c(OC)c1, the pIC50 (second compound 0.0316 µM) was 5.20, the pIC50 (second compound 0.1 µM) was 5.13 and the pIC50 (second compound 0.316 µM) was > 7.50. For the same compound, the pIC50 (second compound 1 µM) was > 7.50, the pIC50 (second compound 3.16 µM) was > 7.50 and the pIC50 (second compound 10 µM) was > 7.50. It also gave a viability, T/C [1] of 96.7%, a viability, T/C [2] of 103% and a viability, T/C [3] of 97.8%. It also gave a viability, T/C [4] of 101%, a viability, T/C [5] of 73.3% and a viability, T/C [6] of 34.2%. It also gave a viability, T/C [7] of 103%, a viability, T/C [8] of 97.5% and a viability, T/C [9] of 94.7%. The viability, T/C [10] was 93.6%, the viability, T/C [11] was 84.4% and the viability, T/C [12] was 37.4%. It also gave a viability, T/C [13] of 37%, a viability, T/C [14] of 43.9% and a viability, T/C [15] of 45.1%. It also gave a viability, T/C [16] of 40.1%, a viability, T/C [17] of 48.3% and a viability, T/C [18] of 29.5%. For the same compound, the viability, T/C [19] was 27.9%, the viability, T/C [20] was 30.9% and the viability, T/C [21] was 30.5%. The viability, T/C [22] was 27.3%, the viability, T/C [23] was 25.3% and the viability, T/C [24] was 15.8%. For the same compound, the viability, T/C [25] was 30.4%, the viability, T/C [26] was 24.3% and the viability, T/C [27] was 28.9%. The viability, T/C [28] was 28.1%, the viability, T/C [29] was 19.3% and the viability, T/C [30] was 12.3%. It also gave a viability, T/C [31] of 29.8%, a viability, T/C [32] of 27.3% and a viability, T/C [33] of 27.5%. The viability, T/C [34] was 25.5%, the viability, T/C [35] was 17.4% and the viability, T/C [36] was 10.3%.

Work on `NC(=O)C(=Cn1cnc(-c2cc(C(F)(F)F)cc(C(F)(F)F)c2)n1)c1cncnc1` + CNC(=O)c1ccc(Nc2nc(OC3CCCC3)c3c(-c4ccc5nc(C)oc5c4)c[nH]c3n2)c(OC)c1 yielded a pIC50 (second compound 0.0316 µM) of 6.48, a pIC50 (second compound 0.1 µM) of 6.39 and a pIC50 (second compound 0.316 µM) of 7.21. The pIC50 (second compound 1 µM) was > 8.02, the pIC50 (second compound 3.16 µM) was > 8.02 and the pIC50 (second compound 10 µM) was > 8.02. It also gave a viability, T/C (second compound 0.0316 µM, first compound 0.00949 µM) of 115%, a viability, T/C (second compound 0.0316 µM, first compound 0.03 µM) of 92.4% and a viability, T/C (second compound 0.0316 µM, first compound 0.0949 µM) of 66.3%. It also gave a viability, T/C (second compound 0.0316 µM, first compound 0.3 µM) of 55%, a viability, T/C (second compound 0.0316 µM, first compound 0.949 µM) of 35.7% and a viability, T/C (second compound 0.0316 µM, first compound 3 µM) of 8.15%. For the same compound, the viability, T/C (second compound 0.1 µM, first compound 0.00949 µM) was 105%, the viability, T/C (second compound 0.1 µM, first compound 0.03 µM) was 96.4% and the viability, T/C (second compound 0.1 µM, first compound 0.0949 µM) was 71%. It also gave a viability, T/C (second compound 0.1 µM, first compound 0.3 µM) of 55.3%, a viability, T/C (second compound 0.1 µM, first compound 0.949 µM) of 37.2% and a viability, T/C (second compound 0.1 µM, first compound 3 µM) of 11.1%. The viability, T/C (second compound 0.316 µM, first compound 0.00949 µM) was 54.1%, the viability, T/C (second compound 0.316 µM, first compound 0.03 µM) was 55.3% and the viability, T/C (second compound 0.316 µM, first compound 0.0949 µM) was 47.9%. It also gave a viability, T/C (second compound 0.316 µM, first compound 0.3 µM) of 38.1%, a viability, T/C (second compound 0.316 µM, first compound 0.949 µM) of 28.3% and a viability, T/C (second compound 0.316 µM, first compound 3 µM) of 4.69%. It also gave a viability, T/C (second compound 1 µM, first compound 0.00949 µM) of 35.7%, a viability, T/C (second compound 1 µM, first compound 0.03 µM) of 31.3% and a viability, T/C (second compound 1 µM, first compound 0.0949 µM) of 28.1%. The viability, T/C (second compound 1 µM, first compound 0.3 µM) was 18.8%, the viability, T/C (second compound 1 µM, first compound 0.949 µM) was 12.8% and the viability, T/C (second compound 1 µM, first compound 3 µM) was 1%. For the same compound, the viability, T/C (second compound 3.16 µM, first compound 0.00949 µM) was 31.4%, the viability, T/C (second compound 3.16 µM, first compound 0.03 µM) was 30.6% and the viability, T/C (second compound 3.16 µM, first compound 0.0949 µM) was 26.1%. It also gave a viability, T/C (second compound 3.16 µM, first compound 0.3 µM) of 19.3%, a viability, T/C (second compound 3.16 µM, first compound 0.949 µM) of 5.51% and a viability, T/C (second compound 3.16 µM, first compound 3 µM) of 0.93%. It also gave a viability, T/C (second compound 10 µM, first compound 0.00949 µM) of 32.6%, a viability, T/C (second compound 10 µM, first compound 0.03 µM) of 25.8% and a viability, T/C (second compound 10 µM, first compound 0.0949 µM) of 22.5%. The viability, T/C (second compound 10 µM, first compound 0.3 µM) was 19.9%, the viability, T/C (second compound 10 µM, first compound 0.949 µM) was 4.71% and the viability, T/C (second compound 10 µM, first compound 3 µM) was 0.78%.
